Test [1] concerns Aedes aegypti. The test is described as follows: Larvicidal activity against Aedes aegypti larvae after 24 hrs […]. Format: functional.
The subject of a further test is Cladosporium cucumerinum. The test is described as follows: Antifungal activity against Cladosporium cucumerinum assessed as inhibition of spore growth by TLC bioassay. The test is classed as functional.
Test [2] concerns Aedes aegypti. The test is described as follows: Larvicidal activity against Aedes aegypti larvae at 400 ppm after 24 hrs […]. The test is classed as functional, organism-based.

Calls of active or inactive are those of the source. The calls are words filed in the database; no cut-off is given here.

In the case of `CC1(C)O[C@H]1COc1c2ccoc2cc2oc(=O)ccc12` [OXYPEUCEDANIN], in the test on Aedes aegypti [1], the LD100 is listed as 25 ppm. The Activity in the test with Cladosporium cucumerinum was 1 µg.
In the test with Aedes aegypti [1], `C/C=C\c1cc(OC)c(OC)cc1OC` [CIS-ASARONE] came in with an LD100 of 16 ppm.
On to `Clc1ccc(COC(Cn2ccnc2)c2ccc(Cl)cc2Cl)c(Cl)c1` (configuration not stated) [MICONAZOLE], for which the Activity with Cladosporium cucumerinum is 1 µg.
Take `CC(C)(O)[C@H](O)COc1c2ccoc2cc2oc(=O)ccc12` [OXYPEUCEDANIN HYDRATE]: the result in the test with Aedes aegypti [1] and with Aedes aegypti [2] was inactive. Also, in the test on Cladosporium cucumerinum, the Activity was 10 µg.

For the origin of these results see ChEMBL document CHEMBL1159215, “Isolation of antifungal and larvicidal constituents of Diplolophium buchanani by centrifugal partition chromatography” (1995).
